Laboratory results reported in PMC10954709, “Structure of an open KATP channel reveals tandem PIP2 binding sites mediating the Kir6.2 and SUR1 regulatory interface” (Nature Communications, 2024).
Values joined by “and” are separate entries in the source; they are usually repeats but may differ in a detail not shown here. Equal values may be shown once.

Assays:
KATP channels = system: KATP channels; set-up: method as in PMID 12525701; conditions: cited from earlier work
[1] = molecular target: T1, SUR1/Kir6.2^R176A channel (UniProt P70673+Q09427, R176A); experiment: PIP2 response, inside-out patch-clamp recording, COSm6 cells; type: biochemical, rat Kir6.2, hamster SUR1; conditions: 5 μM PIP2; −50 mV; mean (± SEM)
T1 construct: expressed in transfected cells; host or cells: COSm6
T1 sequence (Q09427 whole entry): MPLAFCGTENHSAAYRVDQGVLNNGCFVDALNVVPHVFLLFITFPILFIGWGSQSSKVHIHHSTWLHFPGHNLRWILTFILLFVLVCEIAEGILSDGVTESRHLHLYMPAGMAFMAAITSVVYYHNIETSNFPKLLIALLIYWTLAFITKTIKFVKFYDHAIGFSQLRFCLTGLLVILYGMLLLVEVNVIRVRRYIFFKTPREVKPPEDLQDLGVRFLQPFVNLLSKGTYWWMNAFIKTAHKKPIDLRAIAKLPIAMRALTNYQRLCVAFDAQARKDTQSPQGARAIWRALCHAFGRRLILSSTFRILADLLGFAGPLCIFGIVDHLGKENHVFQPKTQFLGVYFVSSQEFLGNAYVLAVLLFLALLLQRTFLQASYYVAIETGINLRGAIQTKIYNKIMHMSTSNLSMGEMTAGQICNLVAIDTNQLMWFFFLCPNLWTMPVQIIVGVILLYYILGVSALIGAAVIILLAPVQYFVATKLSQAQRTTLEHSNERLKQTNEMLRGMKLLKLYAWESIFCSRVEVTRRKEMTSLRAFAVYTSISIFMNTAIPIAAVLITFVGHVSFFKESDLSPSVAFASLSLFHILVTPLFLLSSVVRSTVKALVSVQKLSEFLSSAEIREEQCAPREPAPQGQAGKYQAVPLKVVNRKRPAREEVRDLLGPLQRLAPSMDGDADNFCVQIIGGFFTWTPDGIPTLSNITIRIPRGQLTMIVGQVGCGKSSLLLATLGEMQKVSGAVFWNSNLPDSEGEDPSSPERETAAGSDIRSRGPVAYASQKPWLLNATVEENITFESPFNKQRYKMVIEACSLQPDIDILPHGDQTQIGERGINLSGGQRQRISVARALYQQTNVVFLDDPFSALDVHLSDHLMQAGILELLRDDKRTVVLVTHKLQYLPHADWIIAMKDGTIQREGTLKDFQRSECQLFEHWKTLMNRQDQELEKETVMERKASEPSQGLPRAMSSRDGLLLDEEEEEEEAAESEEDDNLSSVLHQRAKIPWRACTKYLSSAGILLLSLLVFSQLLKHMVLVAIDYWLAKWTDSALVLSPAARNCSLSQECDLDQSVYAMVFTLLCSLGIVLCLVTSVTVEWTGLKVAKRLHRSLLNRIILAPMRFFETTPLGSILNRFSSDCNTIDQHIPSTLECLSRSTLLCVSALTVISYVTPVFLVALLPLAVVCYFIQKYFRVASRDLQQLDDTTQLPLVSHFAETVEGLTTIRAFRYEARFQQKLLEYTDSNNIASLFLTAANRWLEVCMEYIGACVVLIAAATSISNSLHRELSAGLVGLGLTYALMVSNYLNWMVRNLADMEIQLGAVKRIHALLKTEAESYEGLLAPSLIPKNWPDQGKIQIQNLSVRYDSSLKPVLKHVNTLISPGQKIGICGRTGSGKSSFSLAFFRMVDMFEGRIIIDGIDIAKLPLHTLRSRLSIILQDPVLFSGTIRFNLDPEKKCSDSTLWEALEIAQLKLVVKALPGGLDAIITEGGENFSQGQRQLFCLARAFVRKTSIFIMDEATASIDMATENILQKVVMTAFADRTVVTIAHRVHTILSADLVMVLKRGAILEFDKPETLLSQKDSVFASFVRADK
T1 sequence (P70673 whole entry R176A): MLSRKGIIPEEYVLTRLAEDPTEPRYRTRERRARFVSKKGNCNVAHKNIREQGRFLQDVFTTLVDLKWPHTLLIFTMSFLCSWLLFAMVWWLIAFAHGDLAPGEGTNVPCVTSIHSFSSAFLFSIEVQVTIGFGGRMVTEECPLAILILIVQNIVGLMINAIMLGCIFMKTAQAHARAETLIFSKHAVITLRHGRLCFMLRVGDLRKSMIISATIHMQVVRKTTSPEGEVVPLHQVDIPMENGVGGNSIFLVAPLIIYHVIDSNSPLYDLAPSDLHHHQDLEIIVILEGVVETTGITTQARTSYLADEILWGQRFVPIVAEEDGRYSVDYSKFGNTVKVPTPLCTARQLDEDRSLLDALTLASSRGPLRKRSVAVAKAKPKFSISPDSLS
Method: (§1) Fig. 3 Functional testing of the two PIP2 binding sites. a Representative inside-out patch-clamp recordings (−50mV, inward currents shown as upward deflections; the red dashed line indicates 0 currents) of various channels: WT, SUR1^K134A (the non-canonical PIP2 binding site mutation)/Kir6.2, SUR1/Kir6.2^R176A (the canonical PIP2 binding site mutation), and SUR1^K134A/Kir6.2^R176A double mutant, exposed alternately in 5 μM PIP2, 0.1 mM ATP, and 1 mM ATP as indicated by the bars above the recordings. The brief exposures to 0.1 mM and 1 mM ATP between PIP2 exposures were used to monitor the gradual decrease in ATP sensitivity as channel opening became increasingly stabilized by PIP2. b Group data of recordings shown in (a) comparing initial currents in K-INT at the time of patch excision. For each group, mean ± SEM of the data points are shown (WT, n = 12; SUR1^K134A, n = 6; Kir6.2^R176A, n = 7; SUR1^K134A/Kir6.2^R176A, n = 6 cells). Statistical significance was tested between mutants and WT or between double and single mutants using two-tailed unpaired t test with Welch’s correction, alpha = 0.05. *SUR1^K134A vs WT, p = 0.0468; ** Kir6.2^R176A vs WT, p = 0.0016; **SUR1^K134A/Kir6.2^R176A vs WT, p = 0.0014; ^#SUR1^K134A/Kir6.2^R176A vs SUR1^K134A, p = 0.0440; ^$SUR1^K134A/Kir6.2^R176A vs Kir6.2^R176A, p = 0.0411. Note the y-axis in this panel and panel (c) is in log scale for better visualization. c Comparison of the maximum fold-increase in currents after PIP2 exposure in different channels. For each group, mean ± SEM of the data points are shown (WT, n = 12; SUR1^K134A, n = 6; Kir6.2^R176A, n = 7; SUR1^K134A/Kir6.2^R176A, n = 5 cells). Statistical significance was tested between mutants and WT or between double and single mutants using two-tailed unpaired t test, alpha = 0.05. ***SUR1^K134A vs WT, p < 0.0001; ** Kir6.2^R176A vs WT, p = 0.0029; **SUR1^K134A/Kir6.2^R176A vs WT, p = 0.0012; ^#SUR1^K134A/Kir6.2^R176A vs SUR1^K134A, p = 0.0247; ^$SUR1^K134A/Kir6.2^R176A vs Kir6.2^R176A, p = 0.0353. d Comparison of the time of exposure in PIP2 for currents to reach maximum in different channels. For each group, mean ± SEM of the data points are shown (WT, n = 12; SUR1^K134A, n = 6; Kir6.2^R176A, n = 7; SUR1^K134A/Kir6.2^R176A, n = 6 cells). Statistical significance was tested between mutants and WT or between double and single mutants using two-tailed unpaired t test, alpha = 0.05. ***SUR1^K134A vs WT, p < 0.0001; ***Kir6.2^R176A vs WT, p = 0.0002; ***SUR1^K134A/Kir6.2^R176A vs WT, p < 0.0001; ^##SUR1^K134A/Kir6.2^R176A vs SUR1^K134A, p = 0.0071.
(§2) For electrophysiology experiments, COSm6 cells were co-transfected with various combination of WT or mutant SUR1 and Kir6.2 cDNAs (SUR1 in pECE and Kir6.2 in pCDNA3) along with the cDNA for the Green Fluorescent Protein (to facilitate identification of transfected cells) using FuGENE® 6 (Promega). Mutant SUR1 and Kir6.2 were constructed using QuikChange (mutagenesis primers are shown in Supplementary Table 2). Cells were plated onto glass coverslips 24 h after transfection and recordings made in the following two days. All experiments were performed at room temperature. Micropipettes were pulled from non-heparinized Kimble glass (Fisher Scientific) on a horizontal puller (Sutter Instrument). Electrode resistance was typically 1-2 MΩ when filled with K-INT solution containing 140 mM KCl, 10 mM K-HEPES, 1 mM K-EGTA, 1 mM EDTA, pH 7.3. ATP was added as the potassium salt. Inside-out patches of cells bathed in K-INT were voltage-clamped with an Axopatch 1D amplifier (Axon Instruments). ATP or porcine brain PIP2 (Avanti Polar Lipids; prepared in K-INT and bath sonicated in ice water for 30 min before use) were added to K-INT as specified in the figure legend. All currents were measured at a membrane potential of −50 mV (pipette voltage = +50 mV). Data were analyzed using pCLAMP10 software (Axon Instrument). Off-line analysis was performed using Clampfit and GraphPad. […]

[2] = molecular target: T2, SUR1^K134A/Kir6.2 channel (UniProt P70673+Q09427, K134A); experiment: as above; type: biochemical, rat Kir6.2, hamster SUR1; conditions: 5 μM PIP2; −50 mV; mean (± SEM)
T2 construct: expressed in transfected cells; host or cells: COSm6
T2 sequence (Q09427 whole entry K134A): as the sequence (Q09427 whole entry) above, with K134A counted along it
T2 sequence (P70673 whole entry): as the sequence (P70673 whole entry R176A) above, with A176R counted along it
Method: as §1, §2

[3] = molecular target: T3, SUR1^K134A/Kir6.2^R176A double mutant channel (UniProt P70673+Q09427, K134A/R176A); experiment: as above; type: biochemical, rat Kir6.2, hamster SUR1; conditions: 5 μM PIP2; −50 mV; mean (± SEM)
T3 construct: expressed in transfected cells; host or cells: COSm6
T3 sequence (Q09427 whole entry K134A): as the sequence (Q09427 whole entry) above, with K134A counted along it
T3 sequence (P70673 whole entry R176A): as the sequence (P70673 whole entry R176A) above
Method: as §1, §2

[4] = molecular target: T4, WT (SUR1/Kir6.2) KATP channels (UniProt P70673+Q09427); experiment: as above; type: biochemical, rat Kir6.2, hamster SUR1; conditions: 5 μM PIP2
T4 construct: expressed in transfected cells; host or cells: COSm6
T4 sequence (P70673 whole entry): as the sequence (P70673 whole entry R176A) above, with A176R counted along it
T4 sequence (Q09427 whole entry): as the sequence (Q09427 whole entry) above
Method: as §1, §2

His175 = His175 (UniProt position 175, KTAQAHRRAET); experiment: electrophysiology; conditions: cited from earlier work
[5] = molecular target: the molecule itself; experiment: cryo-EM structure; SUR1/Kir6.2^Q52R channel co-expressed in COSm6 cells; membranes enriched with brain PIP2 (1 mg/mL) before solubilisation in digitonin; purified via the N-terminal FLAG tag on SUR1; 0.2 M NaCl, 0.1 M KCl, 0.05 M HEPES pH 7.5, 0.05% digitonin; no ATP or ADP added; graphene oxide-coated grids

PI(4,5)P2 [PIP2]
activation of KATP channels (KATP channels): activated equally well
maximum fold-increase in currents after PIP2 exposure [1]: 48.74 ± 18.25 fold and 48.74 fold
time of exposure in PIP2 for currents to reach maximum [1]: 298.57 ± 73.76 s and 298.57 s
maximum fold-increase in currents after PIP2 exposure [2]: 3.96 ± 0.47 fold and 3.96 fold
time of exposure in PIP2 for currents to reach maximum [2]: 193.83 ± 33.66 s and 193.83 s
maximum fold-increase in currents after PIP2 exposure [3]: 299.65 ± 121.72 fold and 299.65 fold
time of exposure in PIP2 for currents to reach maximum [3]: 419.33 ± 57.86 s and 419.33 s
PIP2 exposure until currents plateaued [4]: ≤ 1 min
maximum fold-increase in currents after PIP2 exposure ([4]; −50 mV, mean (± SEM)): 1.45 fold
time of exposure in PIP2 for currents to reach maximum ([4]; −50 mV, mean (± SEM)): 33.17 ± 3.18 s and 33.17 s

ATP-sensitive inward rectifier potassium channel Kir6.2 (pore subunit of the KATP channel) (not stated for the quoted measurement (this article's own constructs are rat Kir6.2, Rattus norvegicus, with hamster SUR1))
pKa (His175): 7.16

B1: rat Kir6.2^Q52R (natural protein)
chain: MLSRKGIIPEEYVLTRLAEDPTEPRYRTRERRARFVSKKGNCNVAHKNIRERGRFLQDVFTTLVDLKWPHTLLIFTMSFLCSWLLFAMVWWLIAFAHGDLAPGEGTNVPCVTSIHSFSSAFLFSIEVQVTIGFGGRMVTEECPLAILILIVQNIVGLMINAIMLGCIFMKTAQAHRRAETLIFSKHAVITLRHGRLCFMLRVGDLRKSMIISATIHMQVVRKTTSPEGEVVPLHQVDIPMENGVGGNSIFLVAPLIIYHVIDSNSPLYDLAPSDLHHHQDLEIIVILEGVVETTGITTQARTSYLADEILWGQRFVPIVAEEDGRYSVDYSKFGNTVKVPTPLCTARQLDEDRSLLDALTLASSRGPLRKRSVAVAKAKPKFSISPDSLS
notes: Kir6.2, rat, with the neonatal diabetes mutation Q52R; the models hold residues 32-352 (N-terminal 31 residues and the tail beyond 352 not resolved); Four Kir6.2 subunits form the pore of the channel with four SUR1 subunits; the gene was cloned into pShuttle/AdEasy; PDB 6BAA (WT channel) was the starting model; also called Kir6.2 (pore-forming subunit of the SUR1/Kir6.2^Q52R KATP channel); …
stoichiometry N [5]: 4
